Results on 15 compounds are retold here after PubChem BioAssay AID248 (DTP/NCI, 2004).

This assay has as its system L1210 leukemia ip in BDF1 mice, survival T/C. Briefly: NCI In Vivo Anticancer Drug Screen. Data for tumor model L1210 Leukemia (intraperitoneal) in B6D2F1 (BDF1) mice. The settings on record: endpoint: mean survival time, higher = longer survival. The method in brief: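 Tumor cells were implanted, animals were treated, and survival was followed. The result divides the treated measurement by the vehicle-control measurement.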

Where [1] appears, read: dose: 100.0 mg/kg/injection, schedule: Q01DX009 (ip), vehicle: saline with Tween-80.
The mark [2] stands for this setting: dose: 100.0 mg/kg/injection, schedule: Q04DX003 (ip), vehicle: saline with Tween-80.
The mark [3] stands for this setting: dose: 200.0 mg/kg/injection, schedule: Q01DX009 (ip), vehicle: saline with Tween-80.
Where [4] appears, read: dose: 200.0 mg/kg/injection, schedule: Q04DX003 (ip), vehicle: saline with Tween-80.
Setting [5] is: dose: 400.0 mg/kg/injection, schedule: Q01DX009 (ip), vehicle: saline with Tween-80.
The mark [6] stands for this setting: dose: 400.0 mg/kg/injection, schedule: Q04DX003 (ip), vehicle: saline with Tween-80.
Where [7] appears, read: dose: 100.0 mg/kg/injection, schedule: Q01DX001 (ip), vehicle: carboxymethylcellulose (CMC).
Setting [8] is: dose: 200.0 mg/kg/injection, schedule: Q01DX001 (ip), vehicle: saline.
Setting [9] is: dose: 200.0 mg/kg/injection, schedule: Q01DX001 (ip), vehicle: carboxymethylcellulose (CMC).
The mark [10] stands for this setting: dose: 400.0 mg/kg/injection, schedule: Q01DX001 (ip), vehicle: carboxymethylcellulose (CMC).
Where [11] appears, read: dose: 100.0 mg/kg/injection, schedule: Q04DX002 (ip), vehicle: Klucel (hydroxypropylcellulose) (HPC).
The mark [12] stands for this setting: dose: 200.0 mg/kg/injection, schedule: Q04DX002 (ip), vehicle: Klucel (hydroxypropylcellulose) (HPC).
Setting [13] is: dose: 100.0 mg/kg/injection, schedule: Q01DX001 (ip), vehicle: saline.

Each structure is given as a SMILES string. “And” between values parts separate entries of the source, which are not always exact repeats. Equal values may be shown once. Toxic doses and inconclusive results are not listed.

Consider `O=C(CCCc1ccc(N(CCCl)CCCl)cc1)Nc1ccccc1`, for which the T/C (dose: 4.0 mg/kg/injection, schedule: Q12HX018 (ip), vehicle: Klucel (hydroxypropylcellulose) (HPC)) was 102 % of control; the T/C (dose: 4.0 mg/kg/injection, schedule: Q12HX018 (ip), vehicle: other) is 103 % of control; the T/C (dose: 6.0 mg/kg/injection, schedule: Q12HX018 (ip), vehicle: other) was 101 % of control; the T/C (dose: 8.0 mg/kg/injection, schedule: Q12HX018 (ip), vehicle: Klucel (hydroxypropylcellulose) (HPC)) was 109 % of control; the T/C (dose: 8.0 mg/kg/injection, schedule: Q12HX018 (ip), vehicle: other) is 103 % of control; the T/C (dose: 16.0 mg/kg/injection, schedule: Q12HX018 (ip), vehicle: Klucel (hydroxypropylcellulose) (HPC)) is 104 % of control.
Take `O=C(c1cccs1)c1cccs1`: the T/C is 98 % of control (dose: 50.0 mg/kg/injection, schedule: Q01DX009 (ip), vehicle: saline with Tween-80); 100 % of control under setting [1]; 102 % of control under setting [2]; 94 % of control under setting [3]; 107 % of control under setting [4]; 96 % of control under setting [5]. Further, under setting [6], the T/C is 101 % of control.
Turning to `S=c1nc[nH]c2c1ncn2C1CCCCO1` (stereo unspecified), the T/C was 120 % of control (dose: 16.0 mg/kg/injection, schedule: Q01DX Z (ip), vehicle: carboxymethylcellulose (CMC)); 103 % of control (dose: 21.0 mg/kg/injection, schedule: Q01DX009 (ip), vehicle: saline); 120 % of control (dose: 36.0 mg/kg/injection, schedule: Q01DX009 (ip), vehicle: saline); 112 % of control (dose: 88.0 mg/kg/injection, schedule: Q01DX001 (ip), vehicle: saline); 124 % of control under setting [7]; 118 % of control (dose: 100.0 mg/kg/injection, schedule: Q01DX009 (ip), vehicle: saline). Moreover, the T/C by setting is: (dose: 120.0 mg/kg/injection, schedule: Q01DX009 (ip), vehicle: saline) 107 % of control; (dose: 125.0 mg/kg/injection, schedule: Q01DX Z (ip), vehicle: carboxymethylcellulose (CMC)) 94 % of control; (dose: 133.0 mg/kg/injection, schedule: Q01DX001 (ip), vehicle: saline) 122 % of control; (dose: 177.0 mg/kg/injection, schedule: Q01DX001 (ip), vehicle: carboxymethylcellulose (CMC)) 155 % of control; under setting [8], 155 % of control; (dose: 267.0 mg/kg/injection, schedule: Q01DX001 (ip), vehicle: carboxymethylcellulose (CMC)) 159 % of control. Besides, the T/C runs as follows: (dose: 600.0 mg/kg/injection, schedule: Q01DX001 (ip), vehicle: carboxymethylcellulose (CMC)) 150 % of control and 156 % of control; (dose: 900.0 mg/kg/injection, schedule: Q01DX001 (ip), vehicle: carboxymethylcellulose (CMC)) 104 % of control; (dose: 1350.0 mg/kg/injection, schedule: Q01DX001 (ip), vehicle: carboxymethylcellulose (CMC)) 96 % of control.
Consider `COc1ccc(S(=O)(=O)/N=C(/C2CC3=CCC4C5CCC(=O)C5(C)CC(=O)C4C3(C)C2)N2CCCC2)cc1` (stereo unspecified), for which the T/C is 103 % of control (dose: 100.0 mg/kg/injection, schedule: Q01DX001 (ip), vehicle: other); 108 % of control (dose: 200.0 mg/kg/injection, schedule: Q01DX001 (ip), vehicle: other); 98 % of control (dose: 400.0 mg/kg/injection, schedule: Q01DX001 (ip), vehicle: other).
Take `Nc1nc(-c2ccccc2)nc2nonc12`: the T/C was 105 % of control under setting [2], 99 % of control under setting [4] and 97 % of control under setting [6].
As for `Brc1cccc[n+]1CCCC[n+]1ccccc1Br`, the T/C (dose: 2.2 mg/kg/injection, schedule: Q01DX Z (ip), vehicle: saline) is 96 % of control; the T/C (dose: 3.3 mg/kg/injection, schedule: Q01DX Z (ip), vehicle: saline) is 100 % of control; the T/C (dose: 5.0 mg/kg/injection, schedule: Q01DX Z (ip), vehicle: saline) is 87 % of control; the T/C (dose: 10.0 mg/kg/injection, schedule: Q01DX001 (ip), vehicle: saline) is 96 % of control; the T/C (dose: 20.0 mg/kg/injection, schedule: Q01DX001 (ip), vehicle: saline) was 93 % of control.
In the case of `CCCCN=C([Se])NCCCC`, the T/C reads like this: (dose: 15.0 mg/kg/injection, schedule: Q01DX015 (ip), vehicle: carboxymethylcellulose (CMC)) 103 % of control; (dose: 30.0 mg/kg/injection, schedule: Q01DX015 (ip), vehicle: carboxymethylcellulose (CMC)) 96 % of control; (dose: 60.0 mg/kg/injection, schedule: Q01DX015 (ip), vehicle: carboxymethylcellulose (CMC)) 97 % of control.
For `CCCCCCCCCCCCCCCC[n+]1ccc(/C=C/c2ccccc2)cc1`, the T/C is 116 % of control (dose: 2.5 mg/kg/injection, schedule: Q01DX001 (ip), vehicle: carboxymethylcellulose (CMC)); 121 % of control (dose: 5.0 mg/kg/injection, schedule: Q01DX001 (ip), vehicle: carboxymethylcellulose (CMC)); 116 % of control (dose: 10.0 mg/kg/injection, schedule: Q01DX001 (ip), vehicle: carboxymethylcellulose (CMC)).
On to `CCCCCCc1cc(N=Nc2ccc(S(=O)(=O)Nc3nccc(C)n3)cc2)c(O)cc1O`, for which the T/C by setting is: under setting [7], 95 % of control; under setting [9], 98 % of control; under setting [10], 93 % of control.
For the compound `COc1ccc(OC(=O)Nc2ccc(OC)cc2Cl)cc1`, the T/C reads like this: under setting [11], 96 % of control; under setting [12], 107 % of control; (dose: 400.0 mg/kg/injection, schedule: Q04DX002 (ip), vehicle: Klucel (hydroxypropylcellulose) (HPC)) 100 % of control.
With `Cc1ccc(S(=O)(=O)C2CCCCC2)cc1`, the T/C by setting is: (dose: 50.0 mg/kg/injection, schedule: Q01DX001 (ip), vehicle: carboxymethylcellulose (CMC)) 96 % of control; under setting [7], 107 % of control; under setting [9], 102 % of control; under setting [10], 102 % of control.
`O=C(O)c1ccccc1C(=O)OC1CC2C=CC1C21CC1` (stereo unspecified): the T/C by setting is: (dose: 50.0 mg/kg/injection, schedule: Q01DX009 (ip), vehicle: Klucel (hydroxypropylcellulose) (HPC)) 98 % of control; (dose: 100.0 mg/kg/injection, schedule: Q01DX009 (ip), vehicle: Klucel (hydroxypropylcellulose) (HPC)) 96 % of control and 95 % of control; (dose: 100.0 mg/kg/injection, schedule: Q04DX003 (ip), vehicle: Klucel (hydroxypropylcellulose) (HPC)) 95 % of control; (dose: 200.0 mg/kg/injection, schedule: Q01DX009 (ip), vehicle: Klucel (hydroxypropylcellulose) (HPC)) 100 % of control and 113 % of control; (dose: 200.0 mg/kg/injection, schedule: Q04DX003 (ip), vehicle: Klucel (hydroxypropylcellulose) (HPC)) 104 % of control and 106 % of control; (dose: 400.0 mg/kg/injection, schedule: Q04DX003 (ip), vehicle: Klucel (hydroxypropylcellulose) (HPC)) 101 % of control.
On to `CC(=O)CC(=O)Nc1cccc(C)n1`, for which the T/C by setting is: under setting [13], 100 % of control; under setting [11], 94 % of control; under setting [8], 110 % of control; under setting [12], 97 % of control.
`CCc1cccc(CC)c1NC(=O)Nc1ccc(Br)cc1`: the T/C was 87 % of control (dose: 50.0 mg/kg/injection, schedule: Q04DX003 (ip), vehicle: saline); 86 % of control under setting [13]; 87 % of control (dose: 100.0 mg/kg/injection, schedule: Q04DX003 (ip), vehicle: saline); 89 % of control under setting [8]; 92 % of control (dose: 200.0 mg/kg/injection, schedule: Q04DX003 (ip), vehicle: saline).
Take `Cc1ccc(S(=O)(=O)N/N=C/c2ccccc2C)cc1`: the T/C is 105 % of control under setting [1]; 98 % of control under setting [2]; 100 % of control under setting [3]; 95 % of control under setting [4]; 97 % of control under setting [5]; 95 % of control under setting [6].
